This note sets out measurements from patent US11236087B2, “Highly active pyrazolo-piperidine substituted indole-2-carboxamides active against the hepatitis B virus (HBV)” (AiCuris GmbH & Co. KG, priority 2017, dated 2022).

Data set [1] relates to HBV. The experiment in a line: Determination of HBV DNA from the supernatants of HepAD38 cells (anti-HBV activity). Type of data set: cell-based, hepatitis B virus. Particulars: Hepatitis B virus, 144 h; HBV DNA in HepAD38 supernatant, day 6, qPCR; read-out: Cell Activity (EC50). In short, it runs like this: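 Supernatant viral DNA was measured by LightCycler qPCR, calibrated with pCH-9/3091 plasmid, 6 days after tetracycline-free HepAD38 cultures received half-log serial compound dilutions; untreated and tetracycline-treated cells served as controls; EC50 was fitted by non-linear regression.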
On the technique in general: Real-time PCR tracks product formation cycle by cycle.

The target in data set [2] is T1, HBV core protein (UniProt P03146).
T1 construct: fused on or other part: BODIPY-FL maleimide label on the C-terminal Cys150
T1 sequence (P03146 whole entry, looked up, the tested form may be a part): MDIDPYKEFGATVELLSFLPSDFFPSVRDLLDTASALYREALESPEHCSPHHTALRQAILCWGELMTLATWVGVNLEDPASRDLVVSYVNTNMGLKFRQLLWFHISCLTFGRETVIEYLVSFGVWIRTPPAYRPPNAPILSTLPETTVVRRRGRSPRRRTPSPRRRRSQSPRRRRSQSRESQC
The experiment in a line: Biochemical capsid assembly assay (fluorescence quenching). Further details: species or system hepatitis B virus. Particulars: read-out: Assembly Activity (IC50); BODIPY-FL labelled core protein, 300 μM NaCl, read 6 min after start. In short, it runs like this:
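Assembly-induced fluorescence quenching (477/525 nm) was measured 6 min after NaCl addition ([…]), against 2.5 M and 0 M NaCl controls. The labelled C150 core dimer (truncated at 149) at 1.0-2.0 μM in HEPES pH 7.5 was tested with eight half-log compound dilutions, top 100, 31.6 or 10 μM. EC50 was obtained by non-linear fit from triplicates run three times.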

Data set [3] is described as follows: Cell viability assay (AlamarBlue) in HepAD38 cells. The following applies: human. On the technique in general: The colour change of resazurin is a common sign of viable cells or microbes.

In the case of `CN(CCO)C(=O)c1n[nH]c2c1CN(C(=O)c1cc3c(Cl)c(F)ccc3[nH]1)CC2` [Example 51, 5-(4-chloro-5-fluoro-1H-indole-2-carbonyl)-N-(2-hydroxyethyl)-N-methyl-1H,4H,5H,6H,7H-pyrazolo[4,3-c]pyridine-3-carboxamide], the EC50 – broadly, the midpoint of the concentration-response curve – in data set [1] is below 1 µM. For the same compound, the IC50 (commonly the midpoint of a concentration-inhibition curve) in data set [2] is below 5 µM. For the same compound, the half-maximal cytotoxic concentration (CC50) (in general, the concentration giving 50% cytotoxicity) at 6 days in data set [3] was above 100 µM.

Consider `Cc1cc(F)cc2[nH]c(C(=O)N3CCc4n[nH]c(-c5cscn5)c4C3)cc12` [Example 26, 6-fluoro-4-methyl-2-[3-(1,3-thiazol-4-yl)-2H,4H,5H,6H,7H-pyrazolo[4,3-c]pyridine-5-carbonyl]-1H-indole], for which the EC50 in data set [1] is below 1 µM. The IC50 in data set [2] is below 5 µM. Moreover, the CC50 at 6 days in data set [3] was above 10 µM.

Consider `CN(C(=O)c1[nH]nc2c1CN(C(=O)c1cc3ccccc3[nH]1)CC2)C1(C)COC1` [Example 251, 5-(1H-indole-2-carbonyl)-N-methyl-N-(3-methyloxetan-3-yl)-2H,4H,5H,6H,7H-pyrazolo[4,3-c]pyridine-3-carboxamide], for which the EC50 in data set [1] was below 1 µM. Further, the IC50 in data set [2] is below 5 µM. This compound came in with a CC50 at 6 days in data set [3] above 10 µM.

On to `CC(O)c1cccc2[nH]c(C(=O)N3CCc4[nH]nc(C(=O)N(C)CCO)c4C3)cc12` (stereo not drawn) [Example 50, N-(2-hydroxyethyl)-5-[4-(1-hydroxyethyl)-1H-indole-2-carbonyl]-N-methyl-1H,4H,5H,6H,7H-pyrazolo[4,3-c]pyridine-3-carboxamide], for which, in data set [1], the EC50 was below 100 µM. The IC50 in data set [2] is below 100 µM. For the same compound, the CC50 at 6 days in data set [3] was above 32 µM.

Consider `CC1(O)CN(C(=O)c2n[nH]c3c2CN(C(=O)c2cc4ccccc4[nH]2)CC3)C1` [Example 34, 1-[5-(1H-indole-2-carbonyl)-1H,4H,5H,6H,7H-pyrazolo[4,3-c]pyridine-3-carbonyl]-3-methylazetidin-3-ol], for which the EC50 in data set [1] is below 1 µM. Also, the IC50 in data set [2] is below 100 µM. In addition, the CC50 at 6 days in data set [3] was above 15 µM.

Consider `CN(C(=O)c1n[nH]c2c1CN(C(=O)c1cc3ccccc3[nH]1)CC2)C1(CO)CC1` [Example 33, N-[1-(hydroxymethyl)cyclopropyl]-5-(1H-indole-2-carbonyl)-N-methyl-1H,4H,5H,6H,7H-pyrazolo[4,3-c]pyridine-3-carboxamide], for which the EC50 in data set [1] was below 1 µM. Besides, the IC50 in data set [2] was below 5 µM. This compound also came in with a CC50 at 6 days in data set [3] above 10 µM.

With `CN(C(=O)c1n[nH]c2c1CN(C(=O)c1cc3ccccc3[nH]1)CC2)C1(CCC(=O)O)CC1` [Example 245, 3-{1-[N-methyl 5-(1H-indole-2-carbonyl)-1H,4H,5H,6H,7H-pyrazolo[4,3-c]pyridine-3-amido]cyclopropyl}propanoic acid], the EC50 in data set [1] was below 100 µM. Besides, in data set [2], the IC50 lay within 5 to 10 µM. In data set [3], this compound gave a CC50 at 6 days above 10 µM.

As for `CN(C(=O)c1n[nH]c2c1CN(C(=O)c1cc3ccccc3[nH]1)CC2)C1CC1` [Example 232, N-cyclopropyl-5-(1H-indole-2-carbonyl)-N-methyl-1H,4H,5H,6H,7H-pyrazolo[4,3-c]pyridine-3-carboxamide], the EC50 in data set [1] was below 1 µM. In addition, in data set [2], the IC50 is below 5 µM. In data set [3], this compound registered a CC50 at 6 days above 10 µM.

As for `O=C(c1cc2c(F)cc(F)cc2[nH]1)N1CCc2[nH]nc(C34CC(C3)C4)c2C1` [Example 333, 2-(3-{bicyclo[1.1.1]pentan-1-yl}-1H,4H,5H,6H,7H-pyrazolo[4,3-c]pyridine-5-carbonyl)-4,6-difluoro-1H-indole], the EC50 in data set [1] was below 1 µM. Also, the IC50 in data set [2] was below 5 µM. In data set [3], this compound returned a CC50 at 6 days above 10 µM.

On to `COC1CCN(C(=O)c2n[nH]c3c2CN(C(=O)c2cc4ccccc4[nH]2)CC3)CC1` [Example 160, 2-[3-(4-methoxypiperidine-1-carbonyl)-1H,4H,5H,6H,7H-pyrazolo[4,3-c]pyridine-5-carbonyl]-1H-indole], for which the EC50 in data set [1] was below 1 µM. Moreover, the IC50 in data set [2] was below 100 µM. In data set [3], this compound registered a CC50 at 6 days above 10 µM.

`O=C(c1cc2c(Cl)cc(F)cc2[nH]1)N1CCc2[nH]nc(-c3cscn3)c2C1` [Example 46, 4-chloro-6-fluoro-2-[3-(1,3-thiazol-4-yl)-1H,4H,5H,6H,7H-pyrazolo[4,3-c]pyridine-5-carbonyl]-1H-indole]: the EC50 in data set [1] was below 1 µM. In data set [2], the IC50 is below 5 µM. For the same compound, the CC50 at 6 days in data set [3] was above 100 µM.

`CC(=O)N1CCN(C(=O)c2n[nH]c3c2CN(C(=O)c2cc4ccccc4[nH]2)CC3)C(C)(C)C1` [Example 163, 1-{4-[5-(1H-indole-2-carbonyl)-1H,4H,5H,6H,7H-pyrazolo[4,3-c]pyridine-3-carbonyl]-3,3-dimethylpiperazin-1-yl}ethan-1-one]: the EC50 in data set [1] fell in the range of 1 to 25 µM. Moreover, in data set [2], the IC50 is below 100 µM. In data set [3], this compound registered a CC50 at 6 days above 10 µM.

For the compound `COCC1(N(C)C(=O)c2n[nH]c3c2CN(C(=O)c2cc4c(F)ccc(F)c4[nH]2)CC3)CC1` [Example 297, 5-(4,7-difluoro-1H-indole-2-carbonyl)-N-[1-(methoxymethyl)cyclopropyl]-N-methyl-1H,4H,5H,6H,7H-pyrazolo[4,3-c]pyridine-3-carboxamide], in data set [1], the EC50 is below 1 µM. In addition, the IC50 in data set [2] was below 5 µM. In addition, in data set [3], the CC50 at 6 days was above 10 µM.

Turning to `CN(CCO)C(=O)c1n[nH]c2c1CN(C(=O)c1cc3c(F)c(F)c(F)cc3[nH]1)CC2` [Example 8, N-(2-hydroxyethyl)-N-methyl-5-(4,5,6-trifluoro-1H-indole-2-carbonyl)-1H,4H,5H,6H,7H-pyrazolo[4,3-c]pyridine-3-carboxamide], in data set [1], the EC50 is below 1 µM. In data set [2], the IC50 was below 5 µM. The compound further had a CC50 at 6 days in data set [3] above 10 µM.

Take `COCC1(N(C)C(=O)c2n[nH]c3c2CN(C(=O)c2cc4ccc(F)cc4[nH]2)CC3)CC1` [Example 166, 5-(6-fluoro-1H-indole-2-carbonyl)-N-[1-(methoxymethyl)cyclopropyl]-N-methyl-1H,4H,5H,6H,7H-pyrazolo[4,3-c]pyridine-3-carboxamide]: the EC50 in data set [1] is below 1 µM. For the same compound, the IC50 in data set [2] was below 5 µM. The compound further registered a CC50 at 6 days in data set [3] above 10 µM.

In the case of `CN(C(=O)c1n[nH]c2c1CN(C(=O)c1cc3c(Cl)cccc3[nH]1)CC2)C1(CO)CC1` [Example 290, 5-(4-chloro-1H-indole-2-carbonyl)-N-[1-(hydroxymethyl)cyclopropyl]-N-methyl-1H,4H,5H,6H,7H-pyrazolo[4,3-c]pyridine-3-carboxamide], the EC50 in data set [1] is below 1 µM. Besides, the IC50 in data set [2] is below 5 µM. Moreover, in data set [3], the CC50 at 6 days was above 10 µM.

On to `CN(OCCO)C(=O)c1n[nH]c2c1CN(C(=O)c1cc3c(Cl)cccc3[nH]1)CC2` [Example 196, 5-(4-chloro-1H-indole-2-carbonyl)-N-(2-hydroxyethoxy)-N-methyl-1H,4H,5H,6H,7H-pyrazolo[4,3-c]pyridine-3-carboxamide], for which, in data set [1], the EC50 was below 1 µM. Moreover, the IC50 in data set [2] is below 5 µM. In data set [3], this compound displayed a CC50 at 6 days above 10 µM.

For `O=C(c1cc2ccc(Br)cc2[nH]1)N1CCc2n[nH]c(-c3cscn3)c2C1` [Example 15, 6-bromo-2-[3-(1,3-thiazol-4-yl)-2H,4H,5H,6H,7H-pyrazolo[4,3-c]pyridine-5-carbonyl]-1H-indole], in data set [1], the EC50 was below 1 µM. The IC50 in data set [2] fell in the range of 5 to 10 µM. For the same compound, the CC50 at 6 days in data set [3] is above 10 µM.

On to `COCC1(N(C)C(=O)c2n[nH]c3c2CN(C(=O)c2cc4c(Cl)cccc4[nH]2)CC3)CC1` [Example 262, 5-(4-chloro-1H-indole-2-carbonyl)-N-[1-(methoxymethyl)cyclopropyl]-N-methyl-1H,4H,5H,6H,7H-pyrazolo[4,3-c]pyridine-3-carboxamide], for which the EC50 in data set [1] is below 1 µM. In addition, in data set [2], the IC50 was below 5 µM. In data set [3], this compound gave a CC50 at 6 days above 10 µM.

Regarding `Cc1cc(F)cc2[nH]c(C(=O)N3CCc4[nH]nc(C56CC(C5)C6)c4C3)cc12` [Example 336, 2-(3-{bicyclo[1.1.1]pentan-1-yl}-1H,4H,5H,6H,7H-pyrazolo[4,3-c]pyridine-5-carbonyl)-6-fluoro-4-methyl-1H-indole], the EC50 in data set [1] was below 1 µM. The IC50 in data set [2] was below 5 µM. The 50% cytotoxic concentration (CC50) at 6 days in data set [3] is above 10 µM.

Regarding `CC1(C)CCCCN1C(=O)c1n[nH]c2c1CN(C(=O)c1cc3ccccc3[nH]1)CC2` [Example 165, 2-[3-(2,2-dimethylpiperidine-1-carbonyl)-1H,4H,5H,6H,7H-pyrazolo[4,3-c]pyridine-5-carbonyl]-1H-indole], the EC50 in data set [1] was below 1 µM. Further, the IC50 in data set [2] lay in the range of 5 to 10 µM. The CC50 at 6 days in data set [3] is above 10 µM.

For `CC(=O)NCCN(C)C(=O)c1n[nH]c2c1CN(C(=O)c1cc3ccccc3[nH]1)CC2` [Example 149, N-(2-{1-[5-(1H-indole-2-carbonyl)-1H,4H,5H,6H,7H-pyrazolo[4,3-c]pyridin-3-yl]-N-methylformamido}ethyl)acetamide], the EC50 in data set [1] fell in the range of 1 to 25 µM. Also, in data set [2], the IC50 was below 100 µM. Further, the CC50 at 6 days in data set [3] was above 10 µM.

For `CCOCCN(C)C(=O)c1n[nH]c2c1CN(C(=O)c1cc3ccccc3[nH]1)CC2` [Example 255, N-(2-ethoxyethyl)-5-(1H-indole-2-carbonyl)-N-methyl-1H,4H,5H,6H,7H-pyrazolo[4,3-c]pyridine-3-carboxamide], the EC50 in data set [1] was below 1 µM. In addition, in data set [2], the IC50 is below 5 µM. The compound also yielded a CC50 at 6 days in data set [3] above 10 µM.
